SMILES strings stand for the structures.

Data set [1] concerns Experimental Osteoarthritis in Rabbit. Nature of the data set: Induction of Experimental Osteoarthritis in Rabbit (EOA in Rabbit). Type of data set: in vivo. Conditions: conclusion drawn from the expected study. The procedure:
Induction of Experimental Osteoarthritis in Rabbit (“EOA in Rabbit”)
Normal rabbits are anaesthetized and anteromedial incisions of the right knees performed. The anterior cruciate ligaments are visualized and sectioned. The wounds are closed and the animals are housed in individual cages, exercised, and fed ad libitum. Rabbits are given either vehicle (water), a combination comprising valdecoxib and gabapentin, or a combination comprising valdecoxib and 3-(1-aminomethyl-cyclohexylmethyl)-4h-[1,2,4]oxadiazol-5-one hydrochloride (10 rabbits per group). […]
The cartilage changes on the femoral condyles and tibial plateaus are graded separately under a dissecting microscope (Stereozoom, Bausch & Lomb, Rochester, N.Y.). […] The surface area changes are measured and expressed in mm^2. […]
Representative specimens of synovial membrane from the medial and lateral knee compartments are dissected from underlying tissues. […] The average is calculated and considered as a unit for the whole knee. […]
Mean values and SEM are calculated and statistical analysis is done using the Mann-Whitney U-test.

For data set [2] the following is noted: cited from earlier work.

`Cl.NCC1(Cc2noc(=O)[nH]2)CCCCC1` [3-(1-aminomethyl-cyclohexylmethyl)-4H-[1,2,4]oxadiazol-5-one hydrochloride]: in data set [1], the “treatment of cartilage damage by the Alpha-2-delta ligand” value is on record as “effective”. The same measure, in the same setting: to `NCC1(CC(=O)O)CCCCC1` [gabapentin] belongs “effective”. Regarding `Cc1onc(-c2ccccc2)c1-c1ccc(S(N)(=O)=O)cc1` [valdecoxib, 4-(5-methyl-3-phenyl-4-isoxazolyl)-benzenesulfonamide], the tolerability entry in data set [2] (combined analysis of various clinical studies) is reported as “well tolerated”. Besides, the “overall upper gastrointestinal safety profile (ulcers, perforations, obstructions and GI bleeds)” value in data set [2] (versus conventional NSAIDs such as ibuprofen, diclofenac and naproxen) is “significantly better”.

The values are drawn from patent US20030199567A1, “Combinations of an alpha-2-delta ligand with a selective inhibitor of cyclooxygenase-2” (priority 2002, published 2003).
